# According to US6828322B2, “Triazolo-pyridazine derivatives as ligands for GABA receptors” (Merck Sharp & Dohme Ltd., priority 1998, dated 2004):
row,SMILES,melting point [°C]
1,"Cn1cnc(COc2nn3c(-c4ccc(F)cc4F)nnc3cc2C2(C)CCCCC2)n1 [Example 13, 3-(2,4-Difluorophenyl)-7-(1-methylcyclohexyl)-6-(1-methyl-1H-1,2,4-triazol-3-ylmethoxy)-1,2,4-triazolo[4,3-b]pyridazine]",156
2,"Cn1ccc(COc2nn3c(-c4ccccc4F)nnc3cc2C2CCC2)n1 [Example 14, 7-Cyclobutyl-3-(2-fluorophenyl)-6-(1-methyl-1H-pyrazol-3-ylmethoxy)-1,2,4-triazolo[4,3-b]pyridazine]",184 to 186
3,"Cc1cc(COc2nn3c(-c4ccccc4F)nnc3cc2C2CCC2)no1 [Example 15, 7-Cyclobutyl-3-(2-fluorophenyl)-6-(5-methylisoxazol-3-ylmethoxy)-1,2,4-triazolo[4,3-b]pyridazine]",150
4,"Cn1ccnc1COc1nn2c(-c3ccccc3F)nnc2cc1C1CCC1 [Example 16, 7-Cyclobutyl-3-(2-fluorophenyl)-6-(1-methyl-1H-Imidazol-2-ylmethoxy)-1,2,4-triazolo[4,3-b]pyridazine]",173
5,"Cn1cnnc1COc1nn2c(-c3ccccc3F)nnc2cc1C1CCC1 [Example 17, 7-Cyclobutyl-3-(2-fluorophenyl)-6-(4-methyl-4H-1,2,4-triazol-3-ylmethoxy)-1,2,4-triazolo[4,3-b]pyridazine]",228
6,"Cn1ncnc1COc1nn2c(-c3ccc(F)cc3F)nnc2cc1-c1cccs1 [Example 19, 3-(2,4-Difluorophenyl)-6-(2-methyl-2H-1,2,4-triazol-3-ylmethoxy)-7-(thien-2-yl)-1,2,4-triazolo[4,3-b]pyridazine]",209 to 212
7,"Cn1cnc(COc2nn3c(-c4ccccc4F)nnc3cc2C2CCC2)c1 [Example 24, 7-Cyclobutyl-3-(2-fluorophenyl)-6-(1-methyl-1H-imidazol-4-ylmethoxy)-1,2,4triazolo[4,3-b]pyridazine]",176
8,"Cn1nccc1COc1nn2c(-c3ccccc3F)nnc2cc1C1CCC1 [Example 26, 7-Cyclobutyl-3-(2-fluorophenyl)-6-(2-methyl-2H-pyrazol-3-ylmethoxy)-1,2,4-triazolo[4,3-b]pyridazine]",184 to 186
9,"Cn1cnc(COc2nn3c(-c4ccccc4F)nnc3cc2C2(C)CCOCC2)n1 [Example 37, 3-(2-Fluorophenyl)-7-(4-methyltetrahydropyran-4-yl)-6-(1-methyl-1H-1,2,4-triazol-3-ylmethoxy)-1,2,4-triazolo [4,3-b]pyridazine]",154
10,"Cn1cnc(COc2nn3c(-c4ccccc4F)nnc3cc2C2(C)CCC(F)(F)CC2)n1 [Example 40, 7-(4,4-Difluoro-1-methylcyclohexyl)-3-(2-fluorophenyl)-6-(1-methyl-1H-1,2,4-triazol-3-ylmethoxy)-1,2,4-triazolo [4,3-b]pyridazine]",193

# Further lines, results first:
row,melting point [°C],SMILES
1,189 to 190,"Cn1ncnc1COc1nn2c(-c3ccccc3F)nnc2cc1-c1cccs1 (hydrate or solvate) [Example 18, 3-(2-Fluorophenyl)-6-(2-methyl-2H-1,2,4-triazol-3-ylmethoxy)-7-(thien-2-yl)-1,2,4-triazolo[4,3-b]pyridazine]"
2,196,"Cn1ncnc1COc1nn2c(-c3ccc(F)cc3F)nnc2cc1C1(C)CCCCC1 [Example 12, 3-(2,4-Difluorophenyl)-7-(1-methylcyclohexyl)-6-(2-methyl-2H-1,2,4-triazol-3-ylmethoxy)-1,2,4-triazolo[4,3-b]pyridazine]"
3,154 to 162,"Cn1ncnc1COc1nn2c(-c3ccccc3F)nnc2cc1C1(F)CCC1 [Example 25, 7-(1-Fluorocyclobutyl)-3-(2-fluorophenyl)-6-(2-methyl-2H-1,2,4-triazol-3-ylmethoxy)-1,2,4-triazolo[4,3-b]pyridazine]"
4,134 to 136,"CC(C)Cc1cc2nnc(-c3ccccc3F)n2nc1OCc1ncnn1C [Example 28, 3-(2-Fluorophenyl)-7-(2-methylpropyl)-6-(2-methyl-2H-1,2,4-triazol-3-ylmethoxy)-1,2,4-triazolo[4,3-b]pyridazine]"
5,103 to 105,"CC(C)CCc1cc2nnc(-c3ccccc3F)n2nc1OCc1ncnn1C [Example 29, 3-(2-Fluorophenyl)-7-(3-methylbutyl)-6-(2-methyl-2H-1,2,4-triazol-3-ylmethoxy)-1,2,4-triazolo[4,3-b]pyridazine]"
6,135 to 137,"Cn1ncnc1COc1nn2c(-c3ccccc3F)nnc2cc1CC1CCCC1 [Example 30, 7-Cyclopentylmethyl-3-(2-fluorophenyl)-6-(2-methyl-2H-1,2,4-triazol-3-ylmethoxy)-1,2,4-triazolo[4,3-b]pyridazine]"
7,123 to 126,"Cn1ncnc1COc1nn2c(-c3ccccc3F)nnc2cc1C(F)(F)F [Example 35, 3-(2-Fluorophenyl)-6-(2-methyl-2H-1,2,4-triazol-3-ylmethoxy)-7-trifluoromethyl-1,2,4-triazolo[4,3-b]pyridazine]"
8,191,"Cn1ncnc1COc1nn2c(-c3ccccc3F)nnc2cc1C1(C)CCOCC1 [Example 36, 3-(2-Fluorophenyl)-7-(4-methyltetrahydropyran-4-yl)-6-(2-methyl-2H-1,2,4-triazol-3-ylmethoxy)-1,2,4-triazolo [4,3-b]pyridazine]"
9,178,"Cn1ncnc1COc1nn2c(-c3ccccc3F)nnc2cc1C1CC(F)(F)C1 [Example 42, 7-(3,3-Difluorocyclobutyl)-3-(2-fluorophenyl)-6-(2-methyl-2H-1,2,4-triazol-3-ylmethoxy)-1,2,4-triazolo[4,3-b]pyridazine]"
10,136 to 139,"Cn1ncnc1COc1nn2c(-c3ccccc3F)nnc2cc1C1CCCO1 (stereo not drawn) [Example 43, 3-(2-Fluorophenyl)-6-(2-methyl-2H-1,2,4-triazol-3-ylmethoxy)-7-(tetrahydrofur-2-yl)-1,2,4-triazolo[4,3-b]pyridazine]"
11,204 to 206,"Cn1ncnc1COc1nn2c(-c3ccccc3F)nnc2cc1-c1cccc(F)c1 [Example 44, 7-(3-Fluorophenyl)-3-(2-fluorophenyl)-6-(2-methyl-2H-1,2,4-triazol-3-ylmethoxy)-1,2,4-triazolo[4,3-b]pyridazine]"
